“And” between values parts separate entries of the source, which are not always exact repeats. Identical values can stand only once. ± gives the expanded uncertainty stated by the source.
Settings: Crystal, Calculated from knudsen effusion weight loss

O=[N+]([O-])c1ccccc1Br [1-bromo-2-nitrobenzene]
Settings	vapor or sublimation pressure
275.15 K	9.5e-05 ± 5e-06 kPa and 9.4e-05 ± 5e-06 kPa
277.15 K	0.000124 ± 6e-06 kPa and 0.000123 ± 6e-06 kPa
279.16 K	0.000164 ± 8e-06 kPa and 0.000165 ± 8e-06 kPa
281.17 K	0.00021 ± 1.1e-05 kPa and 0.000212 ± 1.1e-05 kPa and 0.000208 ± 1e-05 kPa
283.17 K	0.000279 ± 1.4e-05 kPa and 0.00028 ± 1.4e-05 kPa and 0.000277 ± 1.4e-05 kPa
285.17 K	0.000351 ± 1.8e-05 kPa and 0.000353 ± 1.8e-05 kPa and 0.00035 ± 1.8e-05 kPa
287.21 K	0.000451 ± 2.3e-05 kPa and 0.000459 ± 2.3e-05 kPa and 0.000448 ± 2.2e-05 kPa
289.17 K	0.000581 ± 2.9e-05 kPa and 0.000592 ± 3e-05 kPa and 0.000594 ± 3e-05 kPa
291.14 K	0.000733 ± 3.7e-05 kPa and 0.000729 ± 3.7e-05 kPa and 0.000735 ± 3.7e-05 kPa
293.14 K	0.000913 ± 4.6e-05 kPa and 0.000939 ± 4.7e-05 kPa and 0.000925 ± 4.6e-05 kPa
295.16 K	0.001204 ± 0.00013 kPa and 0.00121 ± 0.00013 kPa and 0.001218 ± 0.00013 kPa

O=[N+]([O-])c1cccc(Br)c1 [1-bromo-3-nitrobenzene]
Settings	vapor or sublimation pressure
279.57 K	0.000143 ± 7e-06 kPa and 0.000142 ± 7e-06 kPa and 0.000141 ± 7e-06 kPa
281.21 K	0.000184 ± 9e-06 kPa and 0.000183 ± 9e-06 kPa and 0.000181 ± 9e-06 kPa
283.14 K	0.000238 ± 1.2e-05 kPa and 0.000237 ± 1.2e-05 kPa and 0.000236 ± 1.2e-05 kPa
285.16 K	0.000299 ± 1.5e-05 kPa and 0.000294 ± 1.5e-05 kPa and 0.000301 ± 1.5e-05 kPa
287.19 K	0.000398 ± 2e-05 kPa and 0.000385 ± 1.9e-05 kPa and 0.000381 ± 1.9e-05 kPa
289.39 K	0.000507 ± 2.5e-05 kPa and 0.000506 ± 2.5e-05 kPa and 0.000496 ± 2.5e-05 kPa
291.16 K	0.000649 ± 3.3e-05 kPa and 0.00065 ± 3.3e-05 kPa and 0.000635 ± 3.2e-05 kPa
293.15 K	0.000817 ± 4.1e-05 kPa and 0.000815 ± 4.1e-05 kPa and 0.00079 ± 4e-05 kPa
295.17 K	0.001067 ± 0.00011 kPa and 0.001054 ± 0.00011 kPa and 0.001033 ± 0.0001 kPa

O=[N+]([O-])c1ccc(Br)cc1 [1-bromo-4-nitrobenzene]
Settings	vapor or sublimation pressure
289.15 K	0.000103 ± 5e-06 kPa and 0.000101 ± 5e-06 kPa and 9.9e-05 ± 5e-06 kPa
291.12 K	0.000122 ± 6e-06 kPa and 0.000119 ± 6e-06 kPa and 0.00012 ± 6e-06 kPa
293.14 K	0.00017 ± 9e-06 kPa and 0.000165 ± 8e-06 kPa and 0.000161 ± 8e-06 kPa
295.15 K	0.000209 ± 1e-05 kPa and 0.000202 ± 1e-05 kPa
297.14 K	0.000255 ± 1.3e-05 kPa and 0.000248 ± 1.2e-05 kPa
299.15 K	0.000332 ± 1.7e-05 kPa and 0.000337 ± 1.7e-05 kPa and 0.000333 ± 1.7e-05 kPa
301.13 K	0.000427 ± 2.1e-05 kPa and 0.00041 ± 2.1e-05 kPa and 0.000409 ± 2e-05 kPa
303.14 K	0.000526 ± 2.6e-05 kPa and 0.000537 ± 2.7e-05 kPa and 0.00052 ± 2.6e-05 kPa
305.14 K	0.000644 ± 3.2e-05 kPa and 0.000653 ± 3.3e-05 kPa and 0.000624 ± 3.1e-05 kPa
307.14 K	0.0008 ± 4e-05 kPa and 0.000809 ± 4.1e-05 kPa and 0.000788 ± 3.9e-05 kPa
309.15 K	0.00105 ± 0.00011 kPa and 0.001036 ± 0.0001 kPa and 0.00101 ± 0.0001 kPa

Source: the NIST ThermoML archive (doi:10.1016/j.jct.2009.06.008)
